Results: US8188011B1, “Optimization of ligand affinity for RNA targets using mass spectrometry” (Isis Pharmaceuticals, Inc., priority 2000, dated 2012)
Values joined by “and” are separate entries in the source; they are usually repeats but may differ in a detail not shown here. Equal values may be shown once. “Also recorded” adds a separate entry of the source. Read-outs that look alike come from different tables or passages of the source. Marks after values point to notes of the source that are not given here.

Assays:
[1] = tested on: 27-mer fragment of ribosomal RNA comprising the 16S A-site; experiment: Mode of binding of ligand pairs by ESI-MS (presence or absence of ternary complex); design: species or system bacterial; details: for binding interaction of ligand pair Ibis-326732 / glucosamine on 16S RNA: 70 μM Ibis-326732, 100 μM glucosamine, 5 μM 16S RNA; for binding interaction of ligand pair 2-DOS / 2,4-diaminopyrimidine on 16S RNA: no ternary complex signal; for binding interaction of ligand pair 2-DOS / 3,5-DT on 16S RNA: 5 μM 16S, 100 μM 2-DOS, 0.5 mM 3,5-DT
Source text: Ligands bind competitively for a target when the binding of one ligand prevents the binding of the other ligand is the result of the ligands binding to the target at the same location. In this situation, the mixture contains an equilibrium of two binary complexes, one of which being one ligand bound to the target and the other being the other ligand bound to the target. The ligand having the greater affinity for the target will predominate and thus have higher signal intensity for its binary complex with the target compared to the other ligand. Competitive binding interaction between two ligands is determined according to methods of the invention by analyzing the mixture by mass-spectrometry to detect the presence or lack of signal corresponding to a ternary complex where both ligands are bound to the target at the same time. The lack of signal for a ternary complex indicates a competitive binding interaction between the two ligands while the presence of the signal indicates a non-competitive interaction.
Accordingly, in an aspect of the present invention, there is provided a method for determining the relative interaction between at least two ligands with respect to a target substrate. In practicing this method an amount of each of the ligands is mixed with an amount of the target substrate to form a mixture. This mixture is analyzed by mass spectrometry to determine the presence or absence of a ternary complex corresponding to the simultaneous adduction of two of the ligands with the target substrate.
Ligands bind concurrently when the binding of one ligand to the target is unaffected by the binding of the other and is a consequence of the ligands binding to the target at distinct sites. […] The ligand having the greater affinity for the target will have higher signal intensity for its binary complex with the target compared to the other ligand. […] Particularly, the absolute ion abundance of the ternary complex (TL1L2) is compared to the relative ion abundance of the binary complexes (TL1 and TL2) which contribute to the formation of the ternary complex with respect to the unbound target (TL1×TL2/T). Since there are two binary complexes contributing the formation of the ternary complex, the comparison is with the sum of the two contributing binary complexes i.e. TL1×TL2/T+TL2×TL1/T. If the absolute ion abundance of the ternary complex is equal to the sum of the relative ion abundance of the contributing binary complexes, then the two ligands concurrently bind to the target substrate. Expressed another way, a pair of ligands are concurrent binders for a target if in either of the following equivalent formulae the value of y is equal to zero: […]
In the compound collection used in Example 1, those compounds that formed complexes with the RNA target are pooled into groups of 4-10 and screened again as a mixture against the RNA target as outlined in Example 1. Since all of the compounds have been shown previously to bind to the RNA, three possible changes in the relative ion abundance are observed in the mass spectrometry assay. If two compounds bind at the same site, the ion abundance of the RNA complex for the weaker binder will be decreased through competition for RNA binding with the higher affinity binder (competitive binding). An example is presented in FIG. 3, where the ion abundance from a glucosamine-RNA complex is reduced as glucosamine is displaced from the RNA by addition of a benzimidazole compound. If two compounds can bind at distinct sites, signals will be observed from the respective binary complexes with the RNA and from the ternary complex where both compounds bind to the RNA simultaneously (concurrent binders). […] The relative ion abundance from the […] for 3,5-DT to the free RNA is measured, as is the relative ion abundance from the ternary complex between 3,5-DT, 2-DOS, and RNA and the binary complex. […]

[2] = tested on: 16S ribosomal RNA fragment; experiment: Relative solution affinities of ligand:16S complexes; format: binding, bacterial; details: normalized to the solution affinity of 4-aminobenzamidine
[3] = tested on: 27 nucleotide fragment of bacterial 16S ribosomal RNA incorporating the A-site; experiment: ESI-FT-ICR MS detection of non-covalent ligand:16S RNA complexes (ion abundance relative to unbound RNA); format: binding; details: for affinity for 16S (order of magnitude): ESI-MS assay; for ion abundance of binary ligand:16S complex relative to unbound 16S RNA: 200 μM ligand, 5 μM target 16S RNA fragment
Protocol: In separate mixtures, 200 μM of three ligands IBIS-326611 ((2S)-2-amino-3-hydroxy-1-piperazinylpropan-1-one), IBIS-326645 (5-methyl-1-(2-oxo-2-piperazinylethyl)-1,3-dihydropyrimidine-2,4-dione) and a concatenated compound thereof, IBIS-271583 (1-{2-[(3R)-4-(2S)-2-amino-3-hydroxypropanoyl)-3-methylpiperazinyl]-2-oxoethyl}-5-methyl-1,3-dihydropyrimidine-2,4-dione) are each mixed with 5 μM of target 16S RNA fragment and analyzed by mass spectrometry. IBIS-326611 is shown in FIG. 5 to form a binary complex having an ion abundance 27.8% that of the unbound 16S RNA while IBIS-326645 in FIG. 6 forms a binary complex having an ion abundance 14.7% that of the unbound 16S RNA.
All MS experiments were performed by using an Apex II 70e ESI-FT-ICR MS (Bruker Daltonics, Billerica, Mass.) with an actively shielded 7 tesla superconducting magnet. RNA solutions were prepared in 50 mM NH4OAc (pH 7), mixed with 10% isopropanol to aid desolvation, and infused at a rate of 1.5 μL/min by using a syringe pump. Ions were formed in a modified electrospray source (Analytica, Branford, Conn.) by using an off-axis grounded electrospray probe positioned ca. 1.5 cm from the metallized terminus of the glass desolvation capillary biased at 5,000 V. A countercurrent flow of dry […] gas heated to 150° C. was used to assist in the desolvation process. Ions were accumulated in an external ion reservoir comprised of a radio frequency-only hexapole, a skimmer cone, and an auxiliary electrode for 1,000 ms before transfer into the trapped ion cell for mass analysis. Each spectrum was the result of the co-addition of 64 transients comprised of 524,288 data points acquired over a […] bandwidth, resulting in a 1.2-sec detection interval. All aspects of pulse sequence control, data acquisition, and postacquisition processing were performed by using a Bruker Daltonics data station running XMASS Version 4.0 on a Silicon Graphics (Mountain View, Calif.) R5000 computer.
RNA binding ligands are selected from a set of compounds using mass spectrometry. The RNA used for the target molecule is an RNA whose electrospray ionization properties have been optimized in conjunction with optimization of the electrospray ionization and desolvation conditions. […] A 50 μM stock solution of the RNA is purified, and dialyzed to remove sodium and potassium ions.
The compound set is pooled into mixtures of 8 members, each present at 1-10 mM in […]. A collection of these mixtures is diluted 1:50 into an aqueous solution containing 50-150 mM ammonium acetate buffer at pH 7.0, 1-5 μM RNA target, and 10-50% isopropanol, ethanol, or methanol to create the screening sample. The aqueous solution contains 100 μM each of 8 compounds, 50 mM ammonium acetate, 5 μM RNA target, and 25% isopropanol. These screening samples are arrayed in a 96-well microtiter plate, or added to individual vials for queuing into an automated robotic liquid hander under computer control by the mass spectrometer.
The source voltage potentials are adjusted to give stable electrospray ionization by monitoring the ion abundance of the free RNA. […] If available on the mass spectrometers, the partial gas pressure beyond the desolvation capillary is adjusted by throttling the pumping speed. This gas pressure may also be altered to optimize the ion abundance and observation of the ammonium ion adducts. After instrument performance has been optimized, the voltage potential between the capillary and skimmer lens is increased to reduce the abundance of the ion from the monoammonium-RNA complex to […] of the abundance of the ion from the RNA. These instrument parameters are used for detection of complexes between the RNA and compound set.
The compound set is screened for members that form non-covalent complexes with the RNA. […]

[4] = biological target: 16S ribosomal RNA fragment (27mer RNA, SEQ ID NO:1); experiment: ESI-MS titration of 2-DOS against 16S, polynomial fit for dissociation constants; format: binding, bacterial; details: 4th order polynomial fit, 100 mM ammonium acetate buffer
Protocol: 2′-O-ACE protected 27mer RNA ([…]; SEQ ID NO:1) was purchased from Dharmacon Research (Boulder, Colo.). Aqueous solutions were deprotected for 30 min at 60° C. in a 0.1M tetramethylenediamine acetate buffer at pH 3.5. […] All chemicals were purchased from Aldrich Chemicals (Milwaukee), except for 2-deoxystreptamine and 3,5-diamino-1-N-methyl-triazole, which were prepared according to Georgiadis et al (J. Carbohydr. Chem. 1991, 10, 739-748) and Kaiser et al (U.S. Pat. No. 2,648,670). Ligands were added to the indicated final concentrations from 20 mM aqueous solutions.
Identical sample preparations were used for experiments with FTICR mass spectrometer. […] Sample was introduced at 1.0 μL/min and the capillary interface unheated. Ions were stored for 1.25 sec in a hexapole ion guide prior to transfer to the trapped ion cell. The indicated gas pressure over the vacuum pump situated below the hexapole ion guide was ˜8×10^−6 mbar. The parallel measurements of relative activation energy were performed with the FTICR mass spectrometer by varying the potential difference between the capillary exit and the first skimmer lens element. Typically, 32 1.2 sec transients of 512 k data points were summed prior to Fourier transformation and display.
2-deoxystreptamine (2-DOS) bound to 16S at multiple locations as a function of increasing concentration. At 0.33 mM, one 2-DOS bound 16S, generating an [M-5H^+]^5− complex observed at m/z 1758.9. Complexes corresponding to three and four 2-DOS molecules bound concurrently to 16S appeared at concentrations above 3.3 mM. Knowledge of the binding stoichiometry lead to the use of a fourth-order polynomial for calculation of the respective dissociation constants (KD) (Greig et al., J. Am. Chem. Soc. 1995, 117, 10765-10766).

N[C@H]1C(O)O[C@H](CO)[C@@H](O)[C@@H]1O (stereo partly drawn) [GA, glucosamine]
binding interaction of ligand pair Ibis-326732 / glucosamine on 16S RNA [1]: competitive binders
Relative Soln. Affinity [2]: lower than GBI
Relative Soln. Affinity ([2]; listed as Glucosamine): .86 + 0.03

Nc1ccnc(N)n1 [DAP, 2,4-diaminopyrimidine]
affinity for 16S (order of magnitude) [3]: ˜mM affinities
binding interaction of ligand pair 2-DOS / 2,4-diaminopyrimidine on 16S RNA [1]: preferred sites overlap and 2-DOS displaces DAP for binding
Relative Soln. Affinity [2]: .17 + 0.04

Nc1cccc2nc(C3CCNCC3)[nH]c12 [Ibis-326732, 4-amino-2-piperidin-4-ylbenzimidazole]
affinity for 16S RNA compared with another ligand (ion abundance of binary complexes) [3]: greater affinity than glucosamine
binding interaction of ligand pair Ibis-326732 / glucosamine on 16S RNA [1]: competitive binders

NC(=O)c1[nH]cnc1N [AICA, 4-aminoimidazole-5-carboxamide]
Relative Soln. Affinity [2]: .26 + 0.04

NN1CN(SCc2ccccc2)C=N1 [2-amino-4-benzylthio-1,2,4-triazole]
complex with RNA target observed by ESI-MS [3]: seen

N=C(N)Nc1nc2ccccc2[nH]1 [GBI, 2-guanidylbenzimidazole]
Relative Soln. Affinity [2]: .99 + 0.02

N[C@@H]1C[C@H](N)[C@@H](O)C(O)[C@H]1O (stereo partly drawn) [2-DOS, 2-deoxystreptamine]
affinity for 16S RNA compared with another ligand (ion abundance of binary complexes) [3]: greater binding affinity for the target RNA than DT
binding interaction of ligand pair 2-DOS / 3,5-DT on 16S RNA [1]: concurrent binding interaction; also recorded: cooperative binding
binding interaction of ligand pair 2-DOS / 2,4-diaminopyrimidine on 16S RNA [1]: preferred sites overlap and 2-DOS displaces DAP for binding
Kd ([4]; read-out: KD of 2-DOS:16S complex (first 2-DOS)): 610 µM and 600 µM
Kd ([4]; read-out: KD of (2-DOS)2:16S complex (second 2-DOS)): 1400 ± 100 µM
Kd ([4]; read-out: KD of (2-DOS)3:16S complex (third 2-DOS)): 4000 ± 1000 µM

1-{2-[(3R)-4-(2S)-2-amino-3-hydroxypropanoyl)-3-methylpiperazinyl]-2-oxoethyl}-5-methyl-1,3-dihydropyrimidine-2,4-dione [IBIS-271583]
affinity for 16S RNA compared with another ligand (ion abundance of binary complexes) [3]: greater affinity for 16S than either parent compound
ion abundance of binary ligand:16S complex relative to unbound 16S RNA [3]: 14.7%
ion abundance of binary ligand:16S complex relative to unbound 16S RNA ([3]; listed as IBIS-271483): 52.4%
affinity for 16S RNA compared with another ligand (ion abundance of binary complexes) ([3]; listed as IBIS-271483): greater affinity for the target 16S RNA than either of the parent compounds

N=C(N)c1ccc(N)cc1 [ABA, 4-aminobenzamidine]
Relative Soln. Affinity [2]: 1.00^b

N[C@@H](CO)C(=O)N1CCNCC1 [IBIS-326611, (2S)-2-amino-3-hydroxy-1-piperazinylpropan-1-one]
ion abundance of binary ligand:16S complex relative to unbound 16S RNA [3]: 27.8%

Cn1nc(N)nc1N [3,5-diamino-1-N-methyltriazole]
complex with RNA target observed by ESI-MS [3]: not observed

Nc1n[nH]c(N)n1 [3,5-DT, 3,5-diamino-1,2,4-triazole]
affinity for 16S (order of magnitude) [3]: ˜mM affinities
binding interaction of ligand pair 2-DOS / 3,5-DT on 16S RNA [1]: cooperative binding; also recorded: concurrent binding
binding interaction of ligand pair 2-DOS / 3,5-DT on 16S RNA ([1]; listed as DT): concurrent binding interaction
